Data from patent publication US20250113824A1, “WEED CONTROL METHOD” (SUMITOMO CHEMICAL COMPANY, LIMITED, priority 2018, published 2025).

Assays:
[1] = tested on: glyphosate-resistant weeds and volunteer glyphosate-tolerant soybean and cotton; assay: Soil treatment pot test in greenhouse (Example 1); type: in vivo; settings: soil treated on day of seeding; 6.25, 12.5, 25, 50, 100 or 150 g/ha; 200 L/ha; twenty-eight days after treatment
Description: (§1) In a plastic pot are seeded glyphosate-resistant Amaranthus palmeri in which the number of copies of EPSPS gene has been increased, glyphosate-resistant waterhemp in which the number of copies of EPSPS gene has been increased, glyphosate-resistant kochia in which the number of copies of EPSPS gene has been increased, marestail which is resistant to glyphosate by involving an ABC transporter, Guernsey fleabane which is resistant to glyphosate by involving an ABC transporter, fleabane which is resistant to glyphosate by involving an ABC transporter, glyphosate-resistant goosegrass having Thr102Ile, glyphosate-resistant goosegrass having Pro106Ser, glyphosate-resistant goosegrass having Pro106Ala, glyphosate-resistant goosegrass having Pro106Leu, glyphosate-resistant goosegrass having Thr102Ile and Pro106Ser, glyphosate-resistant darnel having Thr102Ile, glyphosate-resistant darnel having Pro106Ser, glyphosate-resistant darnel having Pro106Ala, glyphosate-resistant darnel having Pro106Leu, volunteer glyphosate-tolerant soybean, and volunteer glyphosate-tolerant cotton. On the same day, the soil is treated with the present compound at the application rate of 6.25, 12.5, 25, 50, 100 or 150 g/ha. The amount of a liquid sprayed is 200 L/ha. Subsequently, the plants are cultivated in a greenhouse.

[2] = tested on: glyphosate-resistant weeds and volunteer glyphosate-tolerant soybean and cotton; assay: Foliar treatment pot test in greenhouse (Example 2); type: in vivo; settings: foliar application after 21 days cultivation; 6.25, 125, 25, 50, 100 or 150 g/ha; 200 L/ha; fourteen days after treatment
Description: as §1, with “The plants are cultivated in a greenhouse for 21 days, and then” for “On the same day, the soil is treated with”, “compound is applied to foliage of the plants” for “compound”, “at” for “at the”, “[…],” for “12.5,”

With `CCOC(=O)COc1ncccc1Oc1cc(-n2c(=O)cc(C(F)(F)F)n(C)c2=O)c(F)cc1Cl` [present compound, ethyl [3-[2-chloro-4-fluoro-5-(1-methyl-6-trifluoromethyl-2,4-dioxo-1,2,3,4-tetrahydropyrimidin-3-yl)phenoxy]-2-pyridyloxy]acetate] the “effect against the weeds” value [1] was “significant effect” and the “effect against the weeds” value [2] was “significant effect”.
